Laboratory results: ChEMBL document CHEMBL6109147, “Discovery of Potent STING Inhibitors Bearing a Difluorobenzodioxol Structural Motif as Potent Anti-Inflammatory Agents” (J Med Chem, 2025)
Activity calls are given as the source filed them. The calls are words filed in the database; no cut-off is given here.

Assays:
[1] = biological target: Stimulator of interferon genes protein (Homo sapiens) (UniProt Q86WV6); test: Inhibition of human wild type STING (R232) expressed in human THP-1 Dual cells assessed as reduction in cGAMP-induced IL-6 expression; format: cell-based; conditions: 293-Dual hSTING-R232
Stimulator of interferon genes protein (Homo sapiens), sequence (Q86WV6 whole entry): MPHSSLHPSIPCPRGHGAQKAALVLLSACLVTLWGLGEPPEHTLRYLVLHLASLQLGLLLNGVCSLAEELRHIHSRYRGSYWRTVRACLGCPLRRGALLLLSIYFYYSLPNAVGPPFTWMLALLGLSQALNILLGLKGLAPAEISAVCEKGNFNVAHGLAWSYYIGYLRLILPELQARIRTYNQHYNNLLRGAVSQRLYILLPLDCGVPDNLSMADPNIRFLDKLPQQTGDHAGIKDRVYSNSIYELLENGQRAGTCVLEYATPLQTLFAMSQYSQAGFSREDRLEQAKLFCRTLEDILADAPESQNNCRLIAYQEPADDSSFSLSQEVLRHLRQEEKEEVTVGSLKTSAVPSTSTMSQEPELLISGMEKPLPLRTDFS

[2] = biological target: T1, Stimulator of interferon genes protein (Mus musculus, UniProt Q3TBT3); test: Inhibition of mouse STING in mouse RAW cells assessed as secreted luciferase reporter of interferon stimulated gene (ISG) measured after 24 hrs incubation by QUANTI-Luc detection assay; format: cell-based
T1 sequence (Q3TBT3 whole entry): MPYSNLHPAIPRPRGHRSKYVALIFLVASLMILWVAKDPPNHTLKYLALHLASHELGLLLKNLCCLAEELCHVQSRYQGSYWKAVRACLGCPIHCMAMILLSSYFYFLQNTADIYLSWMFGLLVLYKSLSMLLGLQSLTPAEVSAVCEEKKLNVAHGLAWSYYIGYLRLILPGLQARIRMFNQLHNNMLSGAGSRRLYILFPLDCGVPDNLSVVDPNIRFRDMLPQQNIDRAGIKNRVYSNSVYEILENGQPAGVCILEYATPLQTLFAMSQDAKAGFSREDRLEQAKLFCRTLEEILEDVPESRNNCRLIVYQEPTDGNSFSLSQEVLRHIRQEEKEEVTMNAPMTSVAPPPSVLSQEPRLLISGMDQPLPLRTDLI

[3] = Half life in Sprague-Dawley rat at 1 mg/kg, iv; format: ADME, organism-based; conditions: in vivo
[4] = AUC (0 to infinity) in Sprague-Dawley rat at 1 mg/kg, iv; format: ADME, organism-based; conditions: in vivo
[5] = Volume of distribution at steady state in Sprague-Dawley rat at 1 mg/kg, iv; format: ADME, organism-based; conditions: Sprague-Dawley, in vivo, read-out: Vdss
[6] = Clearance in Sprague-Dawley rat at 1 mg/kg, iv; format: ADME, organism-based; conditions: in vivo
[7] = MRT (0 to infinity) in Sprague-Dawley rat at 1 mg/kg, iv; format: ADME, organism-based; conditions: Sprague-Dawley, in vivo
[8] = Half life in Sprague-Dawley rat at 3 mg/kg, po; format: ADME, organism-based; conditions: in vivo
[9] = Metabolic stability in human liver microsomes assessed as half life; format: ADME, Microsome
[10] = Metabolic stability in rat liver microsomes assessed as microsomal intrinsic clearance; format: ADME, Microsome; conditions: read-out: CLH
[11] = Metabolic stability in mouse liver microsomes assessed as liver intrinsic clearance; format: ADME, Microsome
[12] = biological target: Stimulator of interferon genes protein (Homo sapiens) (UniProt Q86WV6); test: Binding affinity to Flag-tagged human STING expressed in HEK293T cells assessed as labelling at 0.5 to 4 uM pretreated for 15 mins measured after 1 hr in presence of 1 uM 1-(2,2-difluorobenzo[d][1,3]dioxol-5-yl)-3-(5-ethynyl-1H-indol-3-yl)urea by TAMRA-N3 fluorescent assay; format: cell-based; conditions: dose 0.5-4 µM, time 75.0 min
[13] = biological target: Stimulator of interferon genes protein (Homo sapiens) (UniProt Q86WV6); test: Inhibition of STING in human THP1-Dual cells assessed as inhibition of HT-DNA induced cGAS activation measured after 1 hr incubation followed by stimulated with HT-DNA by Western blotting analysis; format: cell-based
[14] = tested on: THP1-Dual; test: Cytotoxicity against human THP1-Dual cells assessed as cell viability measured after 24 hrs by CCK8 assay; format: functional, cell-based
[15] = biological target: Stimulator of interferon genes protein (Homo sapiens) (UniProt Q86WV6); test: Inhibition of STING downstream signalling in human THP1-Dual cells assessed as inhibition of MSA-2 induced IFN-beta secretion at 0.3 to 3 uM pre-treated for 1 hr followed by stimulated with MSA-2 measured after 24 hrs by ELISA; format: cell-based; conditions: dose 0.3-3 µM, time 25.0 hrs
[16] = biological target: Stimulator of interferon genes protein (Homo sapiens) (UniProt Q86WV6); test: Inhibition of STING downstream signalling in human THP1-Dual cells assessed as inhibition of MSA-2 induced IFN-beta mRNA expression at 0.3 to 3 uM pre-treated for 1 hr followed by stimulated with MSA-2 measured after 4 hrs by real-time PCR analysis; format: cell-based; conditions: dose 0.3-3 µM, time 5.0 hrs
[17] = biological target: Stimulator of interferon genes protein (Homo sapiens) (UniProt Q86WV6); test: Inhibition of human wild type STING (R232) expressed in human 293-Dual hSTING-R232 cells assessed as inhibition of secreted luciferase reporter of interferon stimulated gene (ISG) measured after 24 hrs incubation; format: cell-based
[18] = tested on: Stimulator of interferon genes protein (Homo sapiens), Q86WV6 [UNDEFINED MUTATION]; test: Inhibition of human STING expressed in 293T-Dual-hSTING-H232 cells assessed as reduction in cGAMP-induced secreted luciferase reporter of interferon stimulated gene (ISG) measured after 24 hrs incubation; format: cell-based
Stimulator of interferon genes protein (Homo sapiens), Q86WV6 [UNDEFINED MUTATION], sequence (Q86WV6 whole entry, looked up, change not shown): as the sequence (Q86WV6 whole entry) above

[19] = biological target: T2, Stimulator of interferon genes protein (Mus musculus) (UniProt Q3TBT3); test: Inhibition of STING downstream signalling in mouse RAW264.7 cells assessed as inhibition of […] induced IL-6 secretion level at 0.3 to 3 uM pre-treated for 1 hr followed by stimulated with […] measured after 24 hrs by ELISA; format: cell-based; conditions: dose 0.3-3 µM, time 25.0 hrs
T2 sequence (whole entry): T1 sequence (Q3TBT3 whole entry)

[20] = biological target: T2, Stimulator of interferon genes protein (Mus musculus); test: Inhibition of STING downstream signalling in mouse RAW264.7 cells assessed as inhibition of DMAAA induced Isg15 mRNA level pre-treated for 1 hr followed by stimulated with DMAAA measured after 4 hrs by real-time PCR analysis; format: cell-based; conditions: dose 0.3-3 µM, time 5.0 hrs
[21] = biological target: T2, Stimulator of interferon genes protein (Mus musculus); test: Inhibition of STING downstream signalling in mouse BMDM cells assessed as inhibition of MSA-2 induced IRF3 phosphorylation pre-treated for 1 hr followed by stimulated with MSA-2 measured after 4 hrs by Western blot analysis; format: cell-based; conditions: dose 0.3-3 µM, time 5.0 hrs
[22] = tested on: Mus musculus; test: Anti-inflammatory activity against MSA-2 induced C57BL/6 mouse inflammation model assessed as inhibition of MSA-2 induced IL-6 level in plasma at 10 mg/kg, ip pre-treated for 1 hr followed by stimulated with MSA-2 for 4 hrs by ELISA; format: functional, organism-based; conditions: time 5.0 hrs
[23] = tested on: Mus musculus; test: Anti-inflammatory activity against MSA-2 induced C57BL/6 mouse inflammation model assessed as inhibition of MSA-2 induced IP-10 level in plasma at 10 mg/kg, ip pre-treated for 1 hr followed by stimulated with MSA-2 for 4 hrs by ELISA; format: functional, organism-based; conditions: time 5.0 hrs
[24] = tested on: Mus musculus; test: Anti-inflammatory activity against MSA-2 induced C57BL/6 mouse inflammation model assessed as inhibition of MSA-2 induced IP-10 level in kidney at 10 mg/kg, ip pre-treated for 1 hr followed by stimulated with MSA-2 for 4 hrs by ELISA; format: functional, organism-based; conditions: time 5.0 hrs
[25] = tested on: Mus musculus; test: Anti-inflammatory activity against Cisplatin induced C57BL/6 mouse kidney inflammation model assessed as suppression of Cisplatin induced Isg56 mRNA level in kidney at 5 mg/kg, ip treated for 3 days by real-time PCR analysis; format: functional, organism-based; conditions: time 3.0 day
[26] = tested on: Mus musculus; test: Anti-inflammatory activity in TREX1 D18N mouse model assessed as reduction in IL6 mRNA expression in kidney at 10 mg/kg, ip measured after 2 weeks; format: functional, organism-based
[27] = tested on: Mus musculus; test: Anti-inflammatory activity in TREX1 D18N mouse model assessed as reduction in Isg56 mRNA expression in kidney at 10 mg/kg, ip measured after 2 weeks; format: functional, organism-based
[28] = tested on: Mus musculus; test: Anti-inflammatory activity in TREX1 D18N mouse model assessed as reduction in IL6 mRNA expression in heart at 10 mg/kg, ip measured after 2 weeks; format: functional, organism-based
[29] = tested on: Mus musculus; test: Anti-inflammatory activity in TREX1 D18N mouse model assessed as reduction in Isg15 mRNA expression in heart at 10 mg/kg, ip measured after 2 weeks; format: functional, organism-based

SMILES: N#CC/C=C/c1ccc2[nH]cc(NC(=O)Nc3ccc4c(c3)OC(F)(F)O4)c2c1
- inhibition [1]: Active
- IC50 [2]: 96.3 nM
- half-life [3]: 19.8 min
- AUC(0-inf) [4]: 196 ng·h/mL
- Vd [5]: 2.38 L/kg
- clearance [6]: 88.1 mL/min/kg
- MRT inf [7]: 22.8 min
- half-life [8]: 196 min
- half-life [9]: 33.8 min
- microsomal CLint [10]: 36 µL/min/mg
- CLH [11]: 206 µL/min/mg
- Activity [12]: inactive
- inhibition [13]: Dose-dependent-effect
- inhibition [14]: inactive
- inhibition [15]: Active
- inhibition [16]: Active
- inhibition [17]: Active
- inhibition [18]: Active
- inhibition [19]: Active
- inhibition [20]: Dose-dependent-effect
- inhibition [21]: Dose-dependent-effect
- inhibition [22]: Active
- inhibition [23]: Active
- inhibition [24]: Active
- inhibition [25]: Active
- Activity [26]: Active
- Activity [27]: Active
- Activity [28]: Active
- Activity [29]: Active
